Measurements as given in ChEMBL document CHEMBL1201862, “PubChem BioAssay data set” (2004).
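Values below derive from 48-hour exposures of cells grown in 96-well plates, with endpoints linearly interpolated between the two concentrations bracketing the appropriate inhibition level. The concentration for 50% growth inhibition is given as GI50.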 Active and inactive are the calls of the source. No stated cut-off is given here; in the data, active = GI50 up to about 1.1 µM and inactive = higher.

Legend:
Test in all cases: NCI anticancer screen, dose series, 48 h
[1] = system: SK-OV-3
[2] = system: ACHN
[3] = system: OVCAR-4
[4] = system: KM-20L2
[5] = system: SR
[6] = system: OVCAR-8
[7] = system: HOP-92
[8] = system: SK-MEL-28
[9] = system: SNB-75
[10] = system: DMS-114
[11] = system: EKVX
[12] = system: HOP-18
[13] = system: SF-295
[14] = system: M14
[15] = system: NCI-H460
[16] = system: LOX IMVI
[17] = system: XF498
[18] = system: SN12C
[19] = system: HCT-15
[20] = system: RPMI-8226
[21] = system: RXF 393
[22] = system: COLO 205
[23] = system: Malme-3M
[24] = system: LXFL 529
[25] = system: KM12
[26] = system: NCI-H522
[27] = system: A549
[28] = system: HCT-116
[29] = system: TK-10
[30] = system: OVCAR-5
[31] = system: UO-31
[32] = system: DLD-1
[33] = system: SF-268
[34] = system: HL-60
[35] = system: MOLT-4
[36] = system: OVCAR-3
[37] = system: CAKI-1
[38] = system: SF-539
[39] = system: K562
[40] = system: 786-0
[41] = system: UACC-257
[42] = system: M19-MEL
[43] = system: SNB-78
[44] = system: RXF 631
[45] = system: U-251
[46] = system: DMS-273
[47] = system: HCC 2998
[48] = system: IGROV-1
[49] = system: SNB-19
[50] = system: SK-MEL-5
[51] = system: A498
[52] = system: HT-29
[53] = system: HOP-62
[54] = system: NCI-H226
[55] = system: SW-620
[56] = system: UACC-62
[57] = system: NCI-H23
[58] = system: SK-MEL-2
[59] = system: CCRF-CEM

NCCCNCCSSCCCCS(=O)O
GI50 [1]: > 100 µM (inactive)
GI50 [2]: 55.2 µM (inactive)
GI50 [3]: 14.6 µM (inactive)
GI50 [4]: > 100 µM (inactive)
GI50 [5]: 3.37 µM (inactive)
GI50 [6]: 38.6 µM (inactive)
GI50 [7]: > 100 µM (inactive)
GI50 [8]: 20.9 µM (inactive)
GI50 [9]: 30.8 µM (inactive)
GI50 [10]: > 100 µM (inactive)
GI50 [11]: 85.7 µM (inactive)
GI50 [12]: > 100 µM (inactive)
GI50 [13]: 36.2 µM (inactive)
GI50 [14]: 18.5 µM (inactive)
GI50 [15]: 65.9 µM (inactive)
GI50 [16]: 8.32 µM (inactive)
GI50 [17]: 18.2 µM (inactive)
GI50 [18]: 39.6 µM (inactive)
GI50 [19]: > 100 µM
GI50 [20]: 26.1 µM (inactive)
GI50 [21]: 30.3 µM (inactive)
GI50 [22]: 16.4 µM (inactive)
GI50 [23]: 20.3 µM (inactive)
GI50 [24]: 23 µM (inactive)
GI50 [25]: > 10 µM (inactive)
GI50 [26]: 13.8 µM (inactive)
GI50 [27]: 59.8 µM (inactive)
GI50 [28]: 25.7 µM (inactive)
GI50 [29]: > 100 µM (inactive)
GI50 [30]: 55.1 µM (inactive)
GI50 [31]: 30.6 µM (inactive)
GI50 [32]: 45.8 µM (inactive)
GI50 [33]: 18.1 µM (inactive)
GI50 [34]: 10.4 µM (inactive)
GI50 [35]: 5.09 µM (inactive)
GI50 [36]: 19.9 µM (inactive)
GI50 [37]: 75.5 µM (inactive)
GI50 [38]: 80 µM (inactive)
GI50 [39]: 24.3 µM (inactive)
GI50 [40]: > 100 µM (inactive)
GI50 [41]: 17.2 µM (inactive)
GI50 [42]: 12.6 µM (inactive)
GI50 [43]: 22.8 µM (inactive)
GI50 [44]: > 100 µM (inactive)
GI50 [45]: > 100 µM (inactive)
GI50 [46]: 35.8 µM (inactive)
GI50 [47]: > 100 µM (inactive)
GI50 [48]: > 100 µM (inactive)
GI50 [49]: > 100 µM (inactive)
GI50 [50]: 17.2 µM (inactive)
GI50 [51]: > 100 µM (inactive)
GI50 [52]: 39.8 µM (inactive)
GI50 [53]: > 100 µM (inactive)
GI50 [54]: 57.8 µM (inactive)
GI50 [55]: 30.4 µM (inactive)
GI50 [56]: 15.7 µM (inactive)
GI50 [57]: 17.7 µM (inactive)

COc1cc2c(OC)cc1CSCc1sc(C)c(c1Br)CSC2
GI50 [1]: > 100 µM (inactive)
GI50 [2]: > 100 µM (inactive)
GI50 [3]: > 100 µM (inactive)
GI50 [4]: > 100 µM (inactive)
GI50 [5]: 4.16 µM (inactive)
GI50 [6]: > 100 µM (inactive)
GI50 [7]: > 100 µM (inactive)
GI50 [8]: > 100 µM (inactive)
GI50 [9]: 74.1 µM (inactive)
GI50 [10]: > 100 µM (inactive)
GI50 [11]: > 100 µM (inactive)
GI50 [12]: > 100 µM (inactive)
GI50 [13]: > 100 µM (inactive)
GI50 [14]: > 100 µM (inactive)
GI50 [58]: > 100 µM (inactive)
GI50 [15]: > 100 µM (inactive)
GI50 [59]: > 100 µM (inactive)
GI50 [16]: > 100 µM (inactive)
GI50 [17]: > 100 µM (inactive)
GI50 [18]: > 100 µM (inactive)
GI50 [19]: > 100 µM
GI50 [20]: > 100 µM (inactive)
GI50 [21]: > 100 µM (inactive)
GI50 [22]: > 100 µM (inactive)
GI50 [23]: > 100 µM (inactive)
GI50 [24]: > 100 µM (inactive)
GI50 [25]: > 100 µM (inactive)
GI50 [27]: > 100 µM (inactive)
GI50 [28]: > 100 µM (inactive)
GI50 [29]: > 100 µM (inactive)
GI50 [30]: > 100 µM (inactive)
GI50 [31]: > 100 µM (inactive)
GI50 [32]: > 100 µM (inactive)
GI50 [33]: > 100 µM (inactive)
GI50 [34]: 69.3 µM (inactive)
GI50 [35]: > 100 µM (inactive)
GI50 [36]: > 100 µM (inactive)
GI50 [37]: > 100 µM (inactive)
GI50 [38]: > 100 µM (inactive)
GI50 [39]: > 100 µM (inactive)
GI50 [40]: > 100 µM (inactive)
GI50 [41]: > 100 µM (inactive)
GI50 [42]: > 100 µM (inactive)
GI50 [43]: > 100 µM (inactive)
GI50 [44]: > 100 µM (inactive)
GI50 [45]: > 100 µM (inactive)
GI50 [46]: > 100 µM (inactive)
GI50 [47]: > 100 µM (inactive)
GI50 [48]: > 100 µM (inactive)
GI50 [49]: > 100 µM (inactive)
GI50 [50]: > 100 µM (inactive)
GI50 [51]: > 100 µM (inactive)
GI50 [52]: > 100 µM (inactive)
GI50 [53]: > 100 µM (inactive)
GI50 [54]: > 100 µM (inactive)
GI50 [55]: > 100 µM (inactive)
GI50 [56]: > 100 µM (inactive)
GI50 [57]: > 100 µM (inactive)

C[C@]12CCC[C@H](OC=O)C1(O)C[C@H](C(=O)O)CC2 (some centres undefined)
GI50 [1]: > 100 µM (inactive)
GI50 [2]: > 100 µM (inactive)
GI50 [3]: > 100 µM (inactive)
GI50 [4]: 19 µM (inactive)
GI50 [5]: > 100 µM (inactive)
GI50 [6]: > 100 µM (inactive)
GI50 [7]: > 100 µM (inactive)
GI50 [8]: > 100 µM (inactive)
GI50 [9]: > 100 µM (inactive)
GI50 [10]: > 100 µM (inactive)
GI50 [11]: 19.8 µM (inactive)
GI50 [12]: > 100 µM (inactive)
GI50 [13]: > 100 µM (inactive)
GI50 [14]: > 100 µM (inactive)
GI50 [58]: > 100 µM (inactive)
GI50 [15]: > 100 µM (inactive)
GI50 [59]: > 100 µM (inactive)
GI50 [16]: > 100 µM (inactive)
GI50 [17]: > 100 µM (inactive)
GI50 [18]: > 100 µM (inactive)
GI50 [19]: > 100 µM
GI50 [20]: > 100 µM (inactive)
GI50 [21]: > 100 µM (inactive)
GI50 [22]: > 100 µM (inactive)
GI50 [23]: > 100 µM (inactive)
GI50 [24]: > 100 µM (inactive)
GI50 [25]: > 100 µM (inactive)
GI50 [26]: > 100 µM (inactive)
GI50 [27]: > 100 µM (inactive)
GI50 [28]: > 100 µM (inactive)
GI50 [29]: > 100 µM (inactive)
GI50 [30]: > 100 µM (inactive)
GI50 [31]: > 100 µM (inactive)
GI50 [32]: > 100 µM (inactive)
GI50 [33]: > 100 µM (inactive)
GI50 [34]: > 100 µM (inactive)
GI50 [35]: > 100 µM (inactive)
GI50 [36]: > 100 µM (inactive)
GI50 [37]: > 100 µM (inactive)
GI50 [38]: > 100 µM (inactive)
GI50 [39]: > 100 µM (inactive)
GI50 [40]: > 100 µM (inactive)
GI50 [41]: > 100 µM (inactive)
GI50 [42]: > 100 µM (inactive)
GI50 [43]: > 100 µM (inactive)
GI50 [44]: > 100 µM (inactive)
GI50 [45]: > 100 µM (inactive)
GI50 [46]: > 100 µM (inactive)
GI50 [47]: > 100 µM (inactive)
GI50 [48]: > 100 µM (inactive)
GI50 [49]: > 100 µM (inactive)
GI50 [50]: > 100 µM (inactive)
GI50 [51]: > 100 µM (inactive)
GI50 [52]: > 100 µM (inactive)
GI50 [53]: > 100 µM (inactive)
GI50 [54]: > 100 µM (inactive)
GI50 [55]: > 100 µM (inactive)
GI50 [56]: 16.5 µM (inactive)
GI50 [57]: > 100 µM (inactive)
